Read-outs that look alike come from different tables or passages of the source.
Tested on: T1, P. javanicus ChE (cholinesterase from the liver of Puntius javanicus)
T1 construct: gene BCHE
Assay: Ellman assay (DTNB), […] nm, Michaelis-Menten fit
Format: biochemical, Barbonymus gonionotus
Conditions: 0.1 M sodium phosphate pH 7.0, ambient temperature, 0.1-2.5 mM substrate, 95% confidence interval in brackets

SMILES: CCC(=O)SCC[N+](C)(C)C [PTC, propionylthiocholine iodide]
- Km (read-out: PTC): 830 µM

SMILES: CC(=O)SCC[N+](C)(C)C [ATC, acetylthiocholine iodide]
- Km (read-out: ATC): 410 µM

SMILES: CCCC(=O)SCC[N+](C)(C)C [BTC, S-Butyrylthiocholine iodide]
- Km (read-out: BTC): 230 µM
